Experimental data: publication PMC6886798, “Expression of myeloid Src-family kinases is associated with poor prognosis in AML and influences Flt3-ITD kinase inhibitor acquired resistance” (PLoS ONE, 2019)

Tests used:
Test in all cases: KINOMEscan
Type in all cases: binding
Settings in all cases: 1.0 µM
PIP5K2C = target: T1, PIP5K2C (Homo sapiens, UniProt Q8TBX8)
T1 construct: purchased Eurofins/DiscoverX KINOMEscan scanMAX
Procedure: (§1) Kinase retention to the immobilized ligand is then measured using quantitative real-time PCR for each kinase-specific DNA barcode.

BLK = target: T2, BLK (Homo sapiens, UniProt P51451)
T2 construct: purchased Eurofins/DiscoverX KINOMEscan scanMAX
Procedure: as §1

SGK = target: T3, SGK (Homo sapiens, UniProt O00141)
T3 construct: purchased Eurofins/DiscoverX KINOMEscan scanMAX
Procedure: as §1

PCTK1 = target: T4, PCTK1 (Homo sapiens, UniProt Q00536)
T4 construct: purchased Eurofins/DiscoverX KINOMEscan scanMAX
Procedure: as §1

MEK2 = target: T5, MEK2 (Homo sapiens, UniProt P36507)
T5 construct: purchased Eurofins/DiscoverX KINOMEscan scanMAX
Procedure: as §1

MST2 = target: T6, MST2 (Homo sapiens, UniProt Q13188)
T6 construct: purchased Eurofins/DiscoverX KINOMEscan scanMAX
Procedure: as §1

FER = target: T7, FER (Homo sapiens, UniProt P16591)
T7 construct: purchased Eurofins/DiscoverX KINOMEscan scanMAX
Procedure: as §1

ERK3 = target: T8, ERK3 (Homo sapiens, UniProt Q16659)
T8 construct: purchased Eurofins/DiscoverX KINOMEscan scanMAX
Procedure: as §1

MLK2 = target: T9, MLK2 (Homo sapiens, UniProt Q02779)
T9 construct: purchased Eurofins/DiscoverX KINOMEscan scanMAX
Procedure: as §1

KIT(A829P) = target: T10, KIT(A829P) (Homo sapiens, UniProt P10721, A829P)
T10 construct: purchased Eurofins/DiscoverX KINOMEscan scanMAX
Procedure: as §1

DAPK1 = target: T11, DAPK1 (Homo sapiens, UniProt P53355)
T11 construct: purchased Eurofins/DiscoverX KINOMEscan scanMAX
Procedure: as §1

[1] = target: T12, RSK1(Kin.Dom.2-C-terminal) (Homo sapiens, UniProt Q15418)
T12 construct: RSK1(Kin.Dom.2-C-terminal); purchased Eurofins/DiscoverX KINOMEscan scanMAX
Procedure: as §1

[2] = target: T13, ABL1(T315I)-phosphorylated (Homo sapiens, UniProt P00519, T315I)
T13 construct: purchased Eurofins/DiscoverX KINOMEscan scanMAX
Procedure: as §1

CDK8 = target: T14, CDK8 (Homo sapiens, UniProt P49336)
T14 construct: purchased Eurofins/DiscoverX KINOMEscan scanMAX
Procedure: as §1

ARK5 = target: T15, ARK5 (Homo sapiens, UniProt O60285)
T15 construct: purchased Eurofins/DiscoverX KINOMEscan scanMAX
Procedure: as §1

WNK1 = target: T16, WNK1 (Homo sapiens, UniProt Q9H4A3)
T16 construct: DNA tag (qPCR barcode); purchased Eurofins/DiscoverX KINOMEscan scanMAX
Procedure: as §1

SLK = target: T17, SLK (Homo sapiens, UniProt Q9H2G2)
T17 construct: purchased Eurofins/DiscoverX KINOMEscan scanMAX
Procedure: as §1

PRKCE = target: T18, PRKCE (Homo sapiens, UniProt Q02156)
T18 construct: purchased Eurofins/DiscoverX KINOMEscan scanMAX
Procedure: as §1

GRK2 = target: T19, GRK2 (Homo sapiens, UniProt P25098)
T19 construct: purchased Eurofins/DiscoverX KINOMEscan scanMAX
Procedure: as §1

[3] = target: T20, TYK2(JH2domain-pseudokinase) (Homo sapiens, UniProt P29597)
T20 construct: TYK2(JH2domain-pseudokinase); DNA tag (qPCR barcode); purchased Eurofins/DiscoverX KINOMEscan scanMAX
Procedure: as §1

CDC2L2 = target: T21, CDC2L2 (Homo sapiens, UniProt Q9UQ88)
T21 construct: purchased Eurofins/DiscoverX KINOMEscan scanMAX
Procedure: as §1

TBK1 = target: T22, TBK1 (Homo sapiens, UniProt Q9UHD2)
T22 construct: purchased Eurofins/DiscoverX KINOMEscan scanMAX
Procedure: as §1

MEK3 = target: T23, MEK3 (Homo sapiens, UniProt P46734)
T23 construct: purchased Eurofins/DiscoverX KINOMEscan scanMAX
Procedure: as §1

FLT3(R834Q) = target: T24, FLT3(R834Q) (Homo sapiens, UniProt P36888, R834Q)
T24 construct: purchased Eurofins/DiscoverX KINOMEscan scanMAX
Procedure: as §1

HPK1 = target: T25, HPK1 (Homo sapiens, UniProt Q92918)
T25 construct: purchased Eurofins/DiscoverX KINOMEscan scanMAX
Procedure: as §1

HIPK4 = target: T26, HIPK4 (Homo sapiens, UniProt Q8NE63)
T26 construct: purchased Eurofins/DiscoverX KINOMEscan scanMAX
Procedure: as §1

PIK3CA = target: T27, PIK3CA (Homo sapiens, UniProt P42336)
T27 construct: purchased Eurofins/DiscoverX KINOMEscan scanMAX
Procedure: as §1

CSF1R = target: T28, CSF1R (Homo sapiens, UniProt P07333)
T28 construct: purchased Eurofins/DiscoverX KINOMEscan scanMAX
Procedure: as §1

PLK4 = target: T29, PLK4 (Homo sapiens, UniProt O00444)
T29 construct: purchased Eurofins/DiscoverX KINOMEscan scanMAX
Procedure: as §1

CSNK2A1 = target: T30, CSNK2A1 (Homo sapiens, UniProt P68400)
T30 construct: purchased Eurofins/DiscoverX KINOMEscan scanMAX
Procedure: as §1

DCAMKL2 = target: T31, DCAMKL2 (Homo sapiens, UniProt Q8N568)
T31 construct: purchased Eurofins/DiscoverX KINOMEscan scanMAX
Procedure: as §1

IKK-beta = target: T32, IKK-beta (Homo sapiens, UniProt O14920)
T32 construct: purchased Eurofins/DiscoverX KINOMEscan scanMAX
Procedure: as §1

MRCKA = target: T33, MRCKA (Homo sapiens, UniProt Q5VT25)
T33 construct: purchased Eurofins/DiscoverX KINOMEscan scanMAX
Procedure: as §1

CDK5 = target: T34, CDK5 (Homo sapiens, UniProt Q00535)
T34 construct: purchased Eurofins/DiscoverX KINOMEscan scanMAX
Procedure: as §1

ABL2 = target: T35, ABL2 (Homo sapiens, UniProt P42684)
T35 construct: purchased Eurofins/DiscoverX KINOMEscan scanMAX
Procedure: as §1

TESK1 = target: T36, TESK1 (Homo sapiens, UniProt Q15569)
T36 construct: purchased Eurofins/DiscoverX KINOMEscan scanMAX
Procedure: as §1

NDR2 = target: T37, NDR2 (Homo sapiens, UniProt Q9Y2H1)
T37 construct: purchased Eurofins/DiscoverX KINOMEscan scanMAX
Procedure: as §1

BMPR2 = target: T38, BMPR2 (Homo sapiens, UniProt Q13873)
T38 construct: purchased Eurofins/DiscoverX KINOMEscan scanMAX
Procedure: as §1

IRAK3 = target: T39, IRAK3 (Homo sapiens, UniProt Q9Y616)
T39 construct: purchased Eurofins/DiscoverX KINOMEscan scanMAX
Procedure: as §1

[4] = target: T40, ABL1(F317L)-nonphosphorylated (Homo sapiens, UniProt P00519, F317L)
T40 construct: purchased Eurofins/DiscoverX KINOMEscan scanMAX
Procedure: as §1

CSNK1G1 = target: T41, CSNK1G1 (Homo sapiens, UniProt Q9HCP0)
T41 construct: purchased Eurofins/DiscoverX KINOMEscan scanMAX
Procedure: as §1

T6 sequence (Q13188 whole entry): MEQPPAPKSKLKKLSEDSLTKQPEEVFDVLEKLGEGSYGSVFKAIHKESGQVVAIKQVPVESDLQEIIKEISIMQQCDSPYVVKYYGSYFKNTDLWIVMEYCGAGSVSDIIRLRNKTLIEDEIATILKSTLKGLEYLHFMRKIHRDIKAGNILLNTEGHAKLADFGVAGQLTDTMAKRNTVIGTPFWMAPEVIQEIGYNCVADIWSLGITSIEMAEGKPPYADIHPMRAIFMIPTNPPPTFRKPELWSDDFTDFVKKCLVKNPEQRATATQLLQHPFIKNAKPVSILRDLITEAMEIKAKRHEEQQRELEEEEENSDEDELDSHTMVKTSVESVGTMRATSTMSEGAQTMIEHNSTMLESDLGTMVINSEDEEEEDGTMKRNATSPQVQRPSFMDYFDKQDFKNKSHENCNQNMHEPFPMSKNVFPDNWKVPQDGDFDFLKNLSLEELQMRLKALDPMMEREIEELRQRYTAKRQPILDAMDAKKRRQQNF
T30 sequence (P68400 whole entry): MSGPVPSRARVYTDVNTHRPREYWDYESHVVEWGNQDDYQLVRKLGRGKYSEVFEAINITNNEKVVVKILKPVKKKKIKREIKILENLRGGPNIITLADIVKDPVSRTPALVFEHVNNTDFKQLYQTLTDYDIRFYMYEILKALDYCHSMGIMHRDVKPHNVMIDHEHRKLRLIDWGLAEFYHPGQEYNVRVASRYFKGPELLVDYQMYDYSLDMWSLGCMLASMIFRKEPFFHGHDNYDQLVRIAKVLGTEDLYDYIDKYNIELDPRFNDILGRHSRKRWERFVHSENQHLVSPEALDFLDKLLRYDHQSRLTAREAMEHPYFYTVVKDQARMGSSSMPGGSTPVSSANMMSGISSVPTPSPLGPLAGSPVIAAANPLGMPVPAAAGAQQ
T7 sequence (P16591 whole entry): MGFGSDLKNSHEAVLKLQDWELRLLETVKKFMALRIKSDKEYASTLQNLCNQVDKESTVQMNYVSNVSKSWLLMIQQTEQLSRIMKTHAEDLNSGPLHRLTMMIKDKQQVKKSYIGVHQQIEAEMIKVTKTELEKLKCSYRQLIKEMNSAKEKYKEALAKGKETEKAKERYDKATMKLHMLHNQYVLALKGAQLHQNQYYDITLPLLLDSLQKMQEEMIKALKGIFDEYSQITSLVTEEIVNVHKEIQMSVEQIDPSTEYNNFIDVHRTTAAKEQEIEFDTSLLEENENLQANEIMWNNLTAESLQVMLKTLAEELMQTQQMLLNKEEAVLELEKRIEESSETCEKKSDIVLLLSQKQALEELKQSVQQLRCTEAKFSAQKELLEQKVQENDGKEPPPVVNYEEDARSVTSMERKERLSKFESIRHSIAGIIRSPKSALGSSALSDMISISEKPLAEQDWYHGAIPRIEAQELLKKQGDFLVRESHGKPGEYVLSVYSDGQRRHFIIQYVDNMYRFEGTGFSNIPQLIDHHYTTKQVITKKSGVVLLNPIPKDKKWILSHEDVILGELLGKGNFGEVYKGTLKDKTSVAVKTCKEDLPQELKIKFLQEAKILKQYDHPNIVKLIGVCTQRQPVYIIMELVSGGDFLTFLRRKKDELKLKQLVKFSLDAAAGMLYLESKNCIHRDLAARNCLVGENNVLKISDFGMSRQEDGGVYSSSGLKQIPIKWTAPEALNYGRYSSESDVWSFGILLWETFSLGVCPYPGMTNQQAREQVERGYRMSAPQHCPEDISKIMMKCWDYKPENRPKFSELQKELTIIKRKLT
T8 sequence (Q16659 whole entry): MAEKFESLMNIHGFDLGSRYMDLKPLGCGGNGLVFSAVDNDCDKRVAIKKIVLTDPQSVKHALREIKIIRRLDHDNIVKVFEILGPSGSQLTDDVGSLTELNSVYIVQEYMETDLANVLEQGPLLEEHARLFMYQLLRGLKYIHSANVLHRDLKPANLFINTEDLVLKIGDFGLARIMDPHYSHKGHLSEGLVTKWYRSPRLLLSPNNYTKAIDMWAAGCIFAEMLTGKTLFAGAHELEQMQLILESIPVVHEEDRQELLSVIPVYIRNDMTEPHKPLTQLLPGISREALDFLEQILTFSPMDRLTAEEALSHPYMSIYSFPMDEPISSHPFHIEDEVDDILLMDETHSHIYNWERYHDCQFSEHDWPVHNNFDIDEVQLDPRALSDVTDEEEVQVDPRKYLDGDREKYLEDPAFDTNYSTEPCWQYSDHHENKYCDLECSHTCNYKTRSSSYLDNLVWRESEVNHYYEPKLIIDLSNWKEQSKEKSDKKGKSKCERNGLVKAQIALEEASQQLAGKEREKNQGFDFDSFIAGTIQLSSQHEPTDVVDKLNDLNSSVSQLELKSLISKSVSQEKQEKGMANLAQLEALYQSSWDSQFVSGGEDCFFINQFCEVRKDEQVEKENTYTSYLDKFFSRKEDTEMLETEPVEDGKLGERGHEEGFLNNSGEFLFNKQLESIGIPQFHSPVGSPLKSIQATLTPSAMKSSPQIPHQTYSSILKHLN
T41 sequence (Q9HCP0 whole entry): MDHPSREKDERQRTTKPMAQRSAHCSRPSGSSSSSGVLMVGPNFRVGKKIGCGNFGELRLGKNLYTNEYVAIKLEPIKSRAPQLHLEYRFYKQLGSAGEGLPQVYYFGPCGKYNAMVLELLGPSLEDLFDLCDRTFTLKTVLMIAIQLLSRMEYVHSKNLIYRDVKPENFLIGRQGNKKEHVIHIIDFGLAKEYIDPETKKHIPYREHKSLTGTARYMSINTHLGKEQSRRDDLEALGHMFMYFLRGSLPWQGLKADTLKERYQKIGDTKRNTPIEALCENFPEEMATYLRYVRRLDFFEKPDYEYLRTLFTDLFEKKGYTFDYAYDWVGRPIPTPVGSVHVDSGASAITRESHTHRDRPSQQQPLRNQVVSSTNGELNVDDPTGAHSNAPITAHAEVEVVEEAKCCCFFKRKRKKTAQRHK
T18 sequence (Q02156 whole entry): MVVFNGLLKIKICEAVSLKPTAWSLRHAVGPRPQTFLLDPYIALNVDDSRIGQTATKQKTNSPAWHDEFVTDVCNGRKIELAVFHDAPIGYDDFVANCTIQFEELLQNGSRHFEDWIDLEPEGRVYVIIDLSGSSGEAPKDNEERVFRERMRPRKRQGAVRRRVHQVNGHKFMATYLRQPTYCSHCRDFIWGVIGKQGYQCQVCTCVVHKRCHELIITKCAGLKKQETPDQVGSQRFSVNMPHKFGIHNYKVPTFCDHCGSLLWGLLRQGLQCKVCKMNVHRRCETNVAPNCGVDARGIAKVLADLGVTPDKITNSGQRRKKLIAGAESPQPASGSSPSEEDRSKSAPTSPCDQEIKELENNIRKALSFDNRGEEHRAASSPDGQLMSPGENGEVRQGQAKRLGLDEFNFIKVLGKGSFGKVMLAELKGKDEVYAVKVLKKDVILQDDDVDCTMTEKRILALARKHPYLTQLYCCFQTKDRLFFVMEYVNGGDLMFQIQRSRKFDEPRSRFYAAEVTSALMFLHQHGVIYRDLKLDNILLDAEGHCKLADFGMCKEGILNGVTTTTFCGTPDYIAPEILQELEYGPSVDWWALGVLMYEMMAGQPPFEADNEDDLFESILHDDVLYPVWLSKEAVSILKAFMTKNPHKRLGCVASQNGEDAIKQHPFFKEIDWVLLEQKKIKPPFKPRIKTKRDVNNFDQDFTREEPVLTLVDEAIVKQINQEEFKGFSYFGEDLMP
T38 sequence (Q13873 27-1038): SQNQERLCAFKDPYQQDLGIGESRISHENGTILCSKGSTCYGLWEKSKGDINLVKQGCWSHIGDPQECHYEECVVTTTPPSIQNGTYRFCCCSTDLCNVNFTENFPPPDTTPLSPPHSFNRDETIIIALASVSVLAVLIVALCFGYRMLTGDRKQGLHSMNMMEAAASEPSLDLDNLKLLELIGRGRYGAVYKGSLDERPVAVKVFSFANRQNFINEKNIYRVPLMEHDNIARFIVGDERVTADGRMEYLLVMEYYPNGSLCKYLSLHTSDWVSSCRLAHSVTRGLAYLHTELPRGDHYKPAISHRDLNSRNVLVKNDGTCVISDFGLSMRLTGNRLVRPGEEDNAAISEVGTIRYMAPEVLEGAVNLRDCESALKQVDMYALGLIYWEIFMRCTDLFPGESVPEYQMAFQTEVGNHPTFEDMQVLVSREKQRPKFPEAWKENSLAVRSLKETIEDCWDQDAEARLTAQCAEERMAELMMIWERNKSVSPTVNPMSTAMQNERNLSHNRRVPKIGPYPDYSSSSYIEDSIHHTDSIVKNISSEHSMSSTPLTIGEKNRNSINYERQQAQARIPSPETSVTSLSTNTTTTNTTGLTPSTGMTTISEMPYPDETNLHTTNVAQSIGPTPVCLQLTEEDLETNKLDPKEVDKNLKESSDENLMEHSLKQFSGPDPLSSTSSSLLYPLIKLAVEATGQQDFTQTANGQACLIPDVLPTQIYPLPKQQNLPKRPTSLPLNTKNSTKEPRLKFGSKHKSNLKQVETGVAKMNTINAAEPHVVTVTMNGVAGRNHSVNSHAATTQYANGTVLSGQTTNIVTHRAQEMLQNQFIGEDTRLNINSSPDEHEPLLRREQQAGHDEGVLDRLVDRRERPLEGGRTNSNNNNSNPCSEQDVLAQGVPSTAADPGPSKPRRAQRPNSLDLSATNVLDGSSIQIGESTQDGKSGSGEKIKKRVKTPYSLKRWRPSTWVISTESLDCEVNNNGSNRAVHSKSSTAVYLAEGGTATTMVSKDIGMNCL
T20 sequence (P29597 589-875 limits assumed): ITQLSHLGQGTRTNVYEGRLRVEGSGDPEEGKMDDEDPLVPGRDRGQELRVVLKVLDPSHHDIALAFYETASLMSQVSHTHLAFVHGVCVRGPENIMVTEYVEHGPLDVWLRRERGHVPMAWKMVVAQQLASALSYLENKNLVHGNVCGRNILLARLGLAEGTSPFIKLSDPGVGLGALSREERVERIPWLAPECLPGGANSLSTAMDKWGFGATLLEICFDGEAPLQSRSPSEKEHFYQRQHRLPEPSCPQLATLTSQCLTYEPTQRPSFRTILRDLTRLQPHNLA

Structure (SMILES): CN1CCN(C2CCC(n3cc(-c4ccc(Oc5ccccc5)cc4)c4c(N)ncnc43)CC2)CC1 (centres unmarked) [A-419259]
- % Control (PIP5K2C): 95%
- % Control (BLK): 0.05%
- % Control (SGK): 75%
- % Control (PCTK1): 99%
- % Control (MEK2): 0.2%
- % Control (MST2): 82%
- % Control (FER): 100%
- % Control (ERK3): 100%
- % Control (MLK2): 29%
- % Control (KIT(A829P)): 5.9%
- % Control (DAPK1): 99%
- % Control [1]: 84%
- % Control [2]: 83%
- % Control (CDK8): 28%
- % Control (ARK5): 90%
- % Control (WNK1): 73%
- % Control (SLK): 100%
- % Control (PRKCE): 88%
- % Control (GRK2): 100%
- % Control [3]: 95%
- % Control (CDC2L2): 91%
- % Control (TBK1): 100%
- % Control (MEK3): 91%
- % Control (FLT3(R834Q)): 2.7%
- % Control (HPK1): 44%
- % Control (HIPK4): 63%
- % Control (PIK3CA): 100%
- % Control (CSF1R): 5.8%
- % Control (PLK4): 100%
- % Control (CSNK2A1): 100%
- % Control (DCAMKL2): 87%
- % Control (IKK-beta): 90%
- % Control (MRCKA): 98%
- % Control (CDK5): 83%
- % Control (ABL2): 4.9%
- % Control (TESK1): 95%
- % Control (NDR2): 80%
- % Control (BMPR2): 97%
- % Control (IRAK3): 89%
- % Control [4]: 4.7%
- % Control (CSNK1G1): 80%
